According to patent US10100030B2 (Kissei Pharmaceutical Co., Ltd., priority 2013, dated 2018):
Where two headings read alike, the source gives them in different places.

Experiments:
[1] = target: T1, human NK1 receptor (Homo sapiens (Human), UniProt P25103); test: Affinity for human NK1 receptor (125I-substance P receptor binding test); conditions: membrane fraction of human NK1 receptor-expressing 293T cells; read-out: IC50 (concentration required for 50% inhibition of 125I-substance P binding)
T1 sequence (P25103 whole entry): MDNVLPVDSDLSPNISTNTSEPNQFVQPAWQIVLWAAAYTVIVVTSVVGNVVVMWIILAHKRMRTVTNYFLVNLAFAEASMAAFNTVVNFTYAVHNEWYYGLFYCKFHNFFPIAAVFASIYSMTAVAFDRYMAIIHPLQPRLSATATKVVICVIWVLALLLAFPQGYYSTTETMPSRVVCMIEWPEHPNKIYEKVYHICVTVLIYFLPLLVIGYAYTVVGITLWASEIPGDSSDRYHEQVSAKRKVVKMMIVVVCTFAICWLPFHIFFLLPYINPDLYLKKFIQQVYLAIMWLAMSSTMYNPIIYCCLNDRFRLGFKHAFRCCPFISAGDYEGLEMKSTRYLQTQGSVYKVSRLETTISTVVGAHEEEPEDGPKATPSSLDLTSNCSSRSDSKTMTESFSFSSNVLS
Procedure: Affinity for Human NK1 Receptor
(3) Measurement of Binding Affinity to Human NK1 Receptor
(3-1) Preparation of Membrane Fraction from Human NK1 Receptor-expressing Cells
Human NK1 receptor-expressing cells were prepared in a 175 cm^2 culture flask (Nippon Becton Dickinson). The formation of a complex of the human NK1 receptor expression plasmid and Lipofectamine 2000 was performed by calculating the culture area ratio and increasing the scale of the method described in the above 2-4 by the ratio. The human NK1 receptor-expressing cells were collected in a buffer solution for the membrane fraction preparation (50 mM Tris (Wako Pure Chemical). 120 mM sodium chloride (Wako Pure Chemical Industries), 5 mM potassium chloride (Wako Pure Chemical Industries), 1 mM ethylenediaminetetraacetic acid (Sigma), 0.002 mg/mL chymostatin (Peptide Institute), 0.04 mg/ bacitracin (Wako Pure Chemical Industries), 0.005 mg/mL phosphoramidon (Peptide Institute) and 0.5 mM phenylmethylsulfonyl fluoride (Wako Pure Chemical Industries), pH7.4) and centrifuged at 1,880 g for 10 minutes, and the cell sediment was suspended in the buffer solution for the membrane fraction preparation. After freezing and thawing the cells once, the cells were homogenized using a Dounce-type homogenizer (cooled on ice, 1000 rpm, 20 times). The homogenized cell suspension was centrifuged at 20,000 rpm for 10 minutes, and the supernatant was removed to obtain cell sediment. The cell sediment was suspended again in the buffer solution for the membrane fraction preparation and homogenized using a Dounce-type homogenizer (cooled on ice, 1000 rpm, 30 times). The cell suspension was centrifuged at 20,000 rpm for 10 minutes, and the supernatant was removed to obtain cell sediment. The same homogenization and centrifugation were repeated again, and final cell sediment was obtained. The final cell sediment was suspended in a buffer solution for the receptor binding test (50 mM Tris (Wako Pure Chemical Industries), 3 mM manganese chloride (Wako Pure Chemical Industries), 0.002 mg/mL chymostatin (Peptide Institute), 0.04 mg/bacitracin (Wako Pure Chemical Industries) and 0.02% bovine serum albumin (Sigma), pH 7.4), and the protein concentration was measured using BCA Protein Assay Kit (Pierce).
(3-2) Receptor Binding Test
The buffer solution for the receptor binding test was dispensed to the wells of a 96-well assay plate (Greiner) at 22.5 μL/well. DMSO solutions of a test compound, which were prepared at an 80-time higher concentration using 100% dimethyl sulfoxide (DMSO), were added to the wells at 2.5 μL/well (final concentrations of 1 nM to 100 nM), and the solutions were mixed. As a radiolabeled ligand, ^125I-substance P (Substance P, [^125I]Tyr^8-, PerkinElmer) was used. ^125I-substance P was diluted with the buffer solution for the receptor binding test to a concentration resulting in […] and added to the 96-well assay plate, and the solutions were mixed. The membrane fraction prepared from the human NK1 receptor-expressing cells was diluted with the buffer solution for the receptor binding test to a concentration resulting in 8 to 10 μg/well, suspended until the suspension became in such a homogenous state that the suspension could flow through as 27G injection needle smoothly and then added to the 96-well assay plate at 150 μL/well. Then, the plate was incubated at room temperature for 60 minutes while shaking the plate. The reaction solutions were suction-filtered. through a multiscreen 96-well filter plate (Millipore) which had been pre-treated with 0.3% polyethyleneimine, and the reaction was terminated by washing with a washing solution (50 mM Tris and 0.02% bovine serum albumin, pH 7.4) four times. The bottom of the microplate was dried at 60° C., and then 100 μL/well of MicroScint 20 (PerkinElmer) was dispensed to the wells. The top of the plate was sealed with TopSeal A (PerkinElmer), and the plate was shaken for 5 to 10 minutes. […]

[2] = target: T1, human NK1 receptor; test: Inhibitory effect on human NK1 receptor (substance P-induced increase in intracellular calcium concentration); type: cell-based; conditions: HEK-293T; substance P 1 μM, compound 0.1 μM; human NK1 receptor-expressing 293T cells; read-out: SPRR (Substance P-Response Remaining)
Procedure: Inhibitory Effect on Human NK1 Receptor
(1) Preparation of Human NK1 Receptor-expressing Cells
Human NK1 receptor-expressing cells were prepared by the same methods as those described in 2-3 and 2-4 of Test Example 1.
(2) Study on Inhibitory Effect on Increase in Intracellular Calcium Concentration
The human NK1 receptor-expressing cells were washed with 300 μL/well of a washing solution (20 mM HEPES/Hank's Balanced Salt Solution (HBSS) […]). A fluorescent calcium indicator (Fluo-4 Direct Calcium Assay Kit, Life Technologies, containing 0.42 mM probenecid and 0.1% bovine serum albumin, prepared according to the protocol of the product) was added to the wells at 150 μL/well, and the plate was incubated at 37° C. for 30 minutes in an incubator. Then, DMSO solutions of a test compound, which were prepared at an 80-time higher concentration using 100% dimethyl sulfoxide (DMSO), were added to the wells at 2.5 μL/well (final concentrations of 0.1, 1 and 10 μM), and the solutions were mixed. Then, the plate was further incubated at 37° C. for 30 minutes in an incubator. After 30 minutes, the intracellular calcium concentrations were measured immediately.
The intracellular calcium concentrations were each measured as a fluorescent signal using FDSS (registered trademark) 7000 (Hamamatsu Photonics). A substance P (Peptide Institute, Inc.) solution which was prepared at 0.4 μM or 4 μM using an assay buffer (20 mM HEPES/Hank's Balanced Salt Solution (HBSS) pH 7.3, containing 0.1% bovine serum albumin) was added automatically to each well at 50 μL/well (final concentration of 0.1 or 1 μM) 10 seconds after starting reading, and the fluorescent signal was measured up to 120 seconds.
The intracellular calcium concentration (%) of the cells to which a test compound was added was calculated by the equation below, where the fluorescent signal of the group to which the vehicle (DMSO) was added was regarded as 100%, and the fluorescent signal before the addition of substance P was regarded as 0%. Intracellular calcium concentration(%)=(Fluorescent signal of test compound addition group)/(Fluorescent signal of vehicle addition group)×100
The intracellular calcium concentration (%) calculated was regarded as the remaining agonist activity of substance P (Substance P-Response Remaining: SPRR). In the table, Ex. No. means the Example number. SPRR (%) is the value obtained when the concentration of substance P was 1 μM and the concentration of the compound was 0.1 μM.

[3] = target: T2, CYP3A4 (Homo sapiens (Human), UniProt P08684); test: Inhibitory effect on CYP3A4 (Luciferin-IPA)
T2 sequence (P08684 whole entry): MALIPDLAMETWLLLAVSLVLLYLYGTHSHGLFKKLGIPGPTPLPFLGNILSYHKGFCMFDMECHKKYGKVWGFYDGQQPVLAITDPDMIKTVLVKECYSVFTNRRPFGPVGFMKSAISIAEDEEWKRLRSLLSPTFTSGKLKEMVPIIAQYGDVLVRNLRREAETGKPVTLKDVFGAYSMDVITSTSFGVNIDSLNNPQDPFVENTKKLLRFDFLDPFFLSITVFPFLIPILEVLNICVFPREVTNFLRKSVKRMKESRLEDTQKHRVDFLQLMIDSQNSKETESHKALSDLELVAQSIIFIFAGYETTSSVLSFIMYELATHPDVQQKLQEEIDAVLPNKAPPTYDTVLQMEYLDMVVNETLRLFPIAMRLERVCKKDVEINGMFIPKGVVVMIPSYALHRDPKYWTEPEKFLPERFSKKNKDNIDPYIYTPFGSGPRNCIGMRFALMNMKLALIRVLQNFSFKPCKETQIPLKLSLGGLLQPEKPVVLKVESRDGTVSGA
Procedure: Enzyme reaction was performed by incubating in a potassium phosphate buffer solution (pH 7.4) containing 1 nM to 20 μM test compound, 3.2 mM magnesium chloride, 0.2 pmol human CYP3A4 (BD Biosciences), 0.5 mM reduced nicotinamide adenine dinucleotide phosphate (NADPH) and 3 μM Luciferin-IPA (Promega) at 37° C. for 10 minutes. The volume of the reaction solution was 50 μL/well. The 30-minute pre-incubation group was incubated at 37° C. for 30 minutes before adding the substrate, the Luciferin-IPA solution (12.5 μL/well). At the end of the enzyme reaction, 50 μL/well of a Luciferin detection reagent (Promega) was added to the wells, and the plate was left at room temperature for 20 minutes. Then, the emission intensities were measured with Infinite M1000 (TECAN). The enzyme activities (%) relative to the value of the group to which the test compound was not added were calculated.

[4] = target: NK1 receptor (Meriones unguiculatus (Mongolian jird) (Gerbillus unguiculatus), UniProt Q5DUB1); test: Effect on GR73632-induced foot-tapping; type: in vivo; conditions: 0.3 mg/kg from the jugular vein, GR73632 after four hours, male gerbil
Sequence of NK1 receptor (Q5DUB1 whole entry): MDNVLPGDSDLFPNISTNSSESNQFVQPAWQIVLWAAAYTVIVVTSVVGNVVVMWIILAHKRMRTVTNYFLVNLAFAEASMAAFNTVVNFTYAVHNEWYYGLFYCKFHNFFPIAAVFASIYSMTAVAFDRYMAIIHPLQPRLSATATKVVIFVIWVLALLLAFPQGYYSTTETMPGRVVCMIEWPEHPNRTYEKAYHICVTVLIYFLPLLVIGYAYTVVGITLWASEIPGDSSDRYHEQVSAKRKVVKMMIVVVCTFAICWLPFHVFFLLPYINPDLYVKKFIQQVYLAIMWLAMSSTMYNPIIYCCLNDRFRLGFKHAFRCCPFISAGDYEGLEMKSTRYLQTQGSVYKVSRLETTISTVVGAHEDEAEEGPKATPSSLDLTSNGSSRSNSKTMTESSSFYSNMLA
Procedure: (1) Effect on Foot-tapping
(§1) A male gerbil (Japan SLC) was anesthetized with isoflurane, and 0.3 mg/kg of a test compound was administered from the jugular vein. After four hours, GR73632 (5 pmol/5 μl), which is an NK1 receptor agonist, was administered into the cerebral ventricle at the part 1 mm lateral to and 4.5 mm below the bregma in the head, under anesthesia with isoflurane. After the administration, the gerbil was moved to an observation cage, and the foot-tapping period during five minutes after the recovery of the righting reflex was measured. The foot-tapping inhibition rate (%) of each test compound was calculated by the following equation. Foot-tapping inhibition rate (%)={1−(Foot-tapping period when test compound was administered)/(Foot-tapping period when solvent was administered)}×100 (2) Measurement of Drug Concentrations
(§2) In the table, Ex. No. means the Example number. Inhibition (%) is the foot-tapping inhibition rate, and Conc. (nM) is the drug concentration in the brain.

[5] = Measurement of drug concentrations in the brain after foot-tapping test; type: in vivo; conditions: male; 0.3 mg/kg iv, after foot-tapping was finished, gerbil brain; read-out: Conc. (drug concentration in the brain)
Procedure: as §1
After foot-tapping was finished, laparotomy was performed immediately under anesthesia with ether, and a blood sample was taken from the abdominal vena cava. At the same time, the brain was extracted. Through a quantitative analysis using liquid chromatography-mass spectrometry (LC/MS), the concentrations of the test compound in the plasma and the brain were measured.
as §2

[6] = target: T2, CYP3A4; conditions: background literature; cited from earlier work
[7] = read-out: IC50 (CYP3A4 inhibition), 30-minute pre-incubation group

Row | IC50 [1] | remaining activity at 0.1 µM [2] | IC50 [3, 7] | Inhibition (foot-tapping inhibition rate) [4] | concentration at 4 h [5] | SMILES | inhibitory effect on CYP3A4 (reported) [6] | IC50 [3]
1 | 0.00332 µM |  | 3.8 µM | 100% | 0.219 µM | Cc1cc(F)ccc1-c1cc(N2CCC(C)(CC(=O)O)CC2)nc(C#N)c1N(C)C(=O)C(C)(C)c1cc(C(F)(F)F)cc(C(F)(F)F)c1 [Example 10, [5′-{[2-(3,5-Bistrifluoromethylphenyl)-2-methylpropionyl]methylamino}-6′-cyano-4′-(4-fluoro-2-methylphenyl)-4-methyl-3,4,5,6-tetrahydro-2H-[1,2′]bipyridinyl-4-yl]acetic acid] |  | 
2 | 0.0026 µM | 73% | 2.6 µM | 100% | 0.243 µM | Cc1cc(F)ccc1-c1cc(N2CCC(CC(=O)O)CC2)nc(C#N)c1N(C)C(=O)C(C)(C)c1cc(C(F)(F)F)cc(C(F)(F)F)c1 [Example 6] |  | 
3 | 0.00283 µM | 6% | 6.3 µM |  |  | Cc1cc(F)ccc1-c1cc(N2CCC(C)(CC(=O)O)CC2)ncc1N(C)C(=O)C(C)(C)c1cc(C(F)(F)F)cc(C(F)(F)F)c1 [Example 9] |  | 
4 | 0.00461 µM | 13% | 3.7 µM | 100% | 0.262 µM | Cc1cc(F)ccc1-c1cc(N2CCC(CC(=O)O)C(C)(C)C2)ncc1N(C)C(=O)C(C)(C)c1cc(C(F)(F)F)cc(C(F)(F)F)c1 (centres unmarked) [Example 3] |  | 

The remaining lines, values behind:

Row | SMILES | IC50 [1] | remaining activity at 0.1 µM [2] | IC50 [3, 7] | Inhibition (foot-tapping inhibition rate) [4] | concentration at 4 h [5] | inhibitory effect on CYP3A4 (reported) [6] | IC50 [3]
5 | Cc1cc(F)ccc1-c1cc(N2CCC(C(C)(C)C(=O)O)CC2)ncc1N(C)C(=O)C(C)(C)c1cc(C(F)(F)F)cc(C(F)(F)F)c1 [Example 7, [5′-{[2-(3,5-Bistrifluoromethylphenyl)-2-methylpropionyl]methylamino}-4′-(4-fluoro-2-methylphenyl)-3,4,5,6-tetrahydro-2H-[1,2′]bipyridinyl-4-yl]-2-methylpropionic acid] | 0.00465 µM | 6% | 4.1 µM |  |  |  | 
6 | Cc1cc(F)ccc1-c1cc(N2CCC(CC(=O)O)C(C)C2)ncc1N(C)C(=O)C(C)(C)c1cc(C(F)(F)F)cc(C(F)(F)F)c1 (centres unmarked) [Example 4] | 0.00354 µM | 16% | 4.8 µM | 100% | 0.179 µM |  | 
7 | C[C@@H](O[C@H]1OCCN(Cc2n[nH]c(=O)[nH]2)[C@H]1c1ccc(F)cc1)c1cc(C(F)(F)F)cc(C(F)(F)F)c1 [Aprepitant, aprepitant] |  |  |  |  |  | dose-dependent inhibitory effect on CYP3A4 | 
8 | Cc1cc(F)ccc1-c1cc(N2CCC([C@H](C)C(=O)O)CC2)ncc1N(C)C(=O)C(C)(C)c1cc(C(F)(F)F)cc(C(F)(F)F)c1 [Example 11, (S)-2-[5′-{[2-(3,5-Bistrifluoromethylphenyl)-2-methylpropionyl]methylamino}-4′-(4-fluoro-2-methylphenyl)-3,4,5,6-tetrahydro-2H-[1,2′]bipyridinyl-4-yl]propionic acid] | 0.00132 µM | 7% |  |  |  |  | 4.9 µM
9 | Cc1ccccc1-c1cc(N2CCC(CC(=O)O)CC2)ncc1N(C)C(=O)C(C)(C)c1cc(C(F)(F)F)cc(C(F)(F)F)c1 [Example 2, (5′-{[2-(3,5-Bistrifluoromethylphenyl)-2-methylpropionyl]methylamino}-4′-ortho-tolyl-3,4,5,6-tetrahydro-2H-[1,2]bipyridinyl-4-yl)acetic acid] | 0.00253 µM | 54% | 13 µM | 81% | 0.167 µM |  | 
10 | Cc1ccccc1-c1cc(N2CCN(C)CC2)ncc1N(C)C(=O)C(C)(C)c1cc(C(F)(F)F)cc(C(F)(F)F)c1 [netupitant] |  |  |  |  |  | inhibitory effect on CYP3A4 | 
11 | CC(=O)N1CCN([C@H]2CCN(C(=O)N(C)[C@H](C)c3cc(C(F)(F)F)cc(C(F)(F)F)c3)[C@@H](c3ccc(F)cc3C)C2)CC1 [casopitant] |  |  |  |  |  | inhibitory effect on CYP3A4 | 
12 | COC1CN(c2cc(-c3ccc(F)cc3C)c(N(C)C(=O)C(C)(C)c3cc(C(F)(F)F)cc(C(F)(F)F)c3)cn2)CCC1CC(=O)O (centres unmarked) [Example 5, [5′-{[2-(3,5-Bistrifluoromethylphenyl)-2-methylpropionyl]methylamino}-4′-(4-fluoro-2-methylphenyl)-3-methoxyl-3,4,5,6-tetrahydro-2H-[1,2′]bipyridinyl-4-yl]acetic acid] | 0.00329 µM | 49% | 5.5 µM | 97% | 0.111 µM |  | 
